Where “and” joins values, the source holds several entries; their conditions need not be identical. Equal values may be shown once.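 A five-concentration, 48-hour dose response in 96-well plates underlies each endpoint, interpolated linearly between surrounding concentrations. GI50 is the concentration that inhibits growth by half. TGI: concentration producing complete growth inhibition.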
Key:
Assay in all cases: growth of human tumour cells (NCI), 48 h
SK-MEL-2 melanoma = system: SK-MEL-2 melanoma
U251 CNS = system: U251 CNS
ACHN renal = system: ACHN renal
HCT-116 colon = system: HCT-116 colon
K-562 leukemia = system: K-562 leukemia
SW-620 colon = system: SW-620 colon
CCRF-CEM leukemia = system: CCRF-CEM leukemia
MDA-MB-435 = system: MDA-MB-435
KM12 colon = system: KM12 colon
SNB-75 CNS = system: SNB-75 CNS

Structure (SMILES)	TGI (SK-MEL-2 melanoma)	TGI (U251 CNS)	TGI (ACHN renal)	TGI (HCT-116 colon)	TGI (K-562 leukemia)	TGI (SW-620 colon)	TGI (CCRF-CEM leukemia)	TGI (MDA-MB-435)	TGI (KM12 colon)	TGI (SNB-75 CNS)	GI50 (SK-MEL-2 melanoma)	GI50 (U251 CNS)	GI50 (ACHN renal)	GI50 (HCT-116 colon)	GI50 (K-562 leukemia)	GI50 (SW-620 colon)	GI50 (CCRF-CEM leukemia)	GI50 (MDA-MB-435)	GI50 (KM12 colon)	GI50 (SNB-75 CNS)
CC(=O)OCC(=O)[C@@]12OC(C)(C)O[C@@H]1C[C@H]1[C@@H]3CC=C4C[C@@H](O)CC[C@]4(C)[C@H]3CC[C@@]12C	> 100 µM	> 100 µM	> 100 µM	> 100 µM	> 100 µM	> 100 µM	> 100 µM	> 100 µM	> 100 µM	29.4 µM	–	–	–	–	–	–	–	–	–	–
CN1C(=O)C(CC(=O)O)NC1=S (centres undefined)	> 100 µM	> 100 µM	> 100 µM	> 100 µM	> 100 µM	> 100 µM	> 100 µM	> 100 µM	> 100 µM	> 100 µM	–	–	–	–	–	–	–	–	–	–
CC(NCCC(=O)N(CCC(=O)N(CCC(=O)N(CCC(=O)N(CCC(=O)N(CCC(=O)N(CCC(=O)N(CCC(=O)N(CCC(=O)N(CCC(=O)O)[C@H](C)c1ccccc1)[C@H](C)c1ccccc1)[C@H](C)c1ccccc1)[C@H](C)c1ccccc1)[C@H](C)c1ccccc1)[C@H](C)c1ccccc1)[C@H](C)c1ccccc1)[C@H](C)c1ccccc1)[C@H](C)c1ccccc1)c1ccccc1 (some centres undefined)	7.97 µM	11.1 µM	> 43.9 µM	> 19.9 µM	> 75 µM	> 35 µM	> 19.5 µM	> 16.1 µM	4.9 µM	41.1 µM	1.9 µM	2.82 µM	5.05 µM	1.95 µM	2.29 µM	2.91 µM	1.89 µM	1.71 µM	1.76 µM	2.2 µM
COC(=O)C1=C(C(=O)OC)SC(=C(Cl)C(=S)Nc2ccccc2O)S1	22.2 µM	30.5 µM	> 50 µM	> 50 µM	> 50 µM	> 50 µM	> 50 µM	17 µM	> 50 µM	> 50 µM	10.3 µM	12.2 µM	16.3 µM	0.143 µM	22.6 µM	26.4 µM	> 50 µM	3.82 µM	0.132 µM	33.7 µM
CN(C)CC1C(=O)O[C@H]2[C@H]1CC/C(COC(=O)c1cc3ccccc3[nH]1)=C\CC[C@@]1(C)O[C@@H]21 (some centres undefined)	5.51 µM	5.71 µM	2.48 µM	1.57 µM	6.11 µM	4.41 µM	15.9 µM	3.2 µM	10.8 µM	10.4 µM	1.98 µM	2.3 µM	0.923 µM	0.577 µM	1.14 µM	1.75 µM	0.432 µM	1.49 µM	3.23 µM	2.18 µM
CC(C)COCC(CN(Cc1ccccc1)c1ccccc1)N1CCCC1 (centres undefined)	8 µM	13.3 µM	17 µM	10.4 µM	10.3 µM	15.2 µM	13.7 µM	13.8 µM	13.7 µM	17.6 µM	2.73 µM	3.24 µM	4.99 µM	2.52 µM	3.43 µM	3.54 µM	2.71 µM	3.46 µM	3.54 µM	3.47 µM
COc1cccc(OCCCN)c1-c1cc(Nc2cnc(C#N)cn2)n[nH]1	0.0644 µM	14.4 µM	0.0146 µM	12.9 µM	12.8 µM	12 µM	> 73 µM	1.23 µM	11.1 µM	13.9 µM	0.00476 µM	0.0759 µM and 0.0569 µM	0.00332 µM	0.105 µM and 0.236 µM	0.00444 µM	0.0573 µM and 0.054 µM	–	0.00423 µM	0.0179 µM and 0.017 µM	2.07 µM
